Measurements: PubChem BioAssay (NCI)
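Five compound concentrations were applied to cells in 96-well plates for 48 hours; endpoints were derived by simple linear interpolation of the resulting dose-response curve. The concentration for full growth arrest is given as TGI.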

How the values were obtained:
Assay in all cases: NCI-60 cell line screen, 48 h
MDA-MB-231 breast = test system: MDA-MB-231 breast
A498 renal = test system: A498 renal
EKVX NSCLC = test system: EKVX NSCLC
KM12 colon = test system: KM12 colon
IGROV1 ovarian = test system: IGROV1 ovarian
U251 CNS = test system: U251 CNS
HOP-62 NSCLC = test system: HOP-62 NSCLC
HL-60(TB) leukemia = test system: HL-60(TB) leukemia
SK-MEL-2 melanoma = test system: SK-MEL-2 melanoma
NCI-H522 lung = test system: NCI-H522 lung
RPMI-8226 leukemia = test system: RPMI-8226 leukemia
OVCAR-8 ovarian = test system: OVCAR-8 ovarian
SF-295 CNS = test system: SF-295 CNS
COLO 205 colon = test system: COLO 205 colon
ACHN renal = test system: ACHN renal
HT29 colon = test system: HT29 colon
TK-10 renal = test system: TK-10 renal
HCT-15 colon = test system: HCT-15 colon
MALME-3M melanoma = test system: MALME-3M melanoma
HS 578T breast = test system: HS 578T breast
NCI/ADR-RES ovarian = test system: NCI/ADR-RES ovarian
HOP-92 NSCLC = test system: HOP-92 NSCLC
A549 NSCLC = test system: A549 NSCLC
OVCAR-4 ovarian = test system: OVCAR-4 ovarian
CAKI-1 renal = test system: CAKI-1 renal
SW-620 colon = test system: SW-620 colon
SR leukemia = test system: SR leukemia
PC-3 prostate = test system: PC-3 prostate
OVCAR-3 ovarian = test system: OVCAR-3 ovarian
MOLT-4 leukemia = test system: MOLT-4 leukemia
UACC-257 melanoma = test system: UACC-257 melanoma
M14 melanoma = test system: M14 melanoma
RXF 393 renal = test system: RXF 393 renal
T-47D breast = test system: T-47D breast
NCI-H226 lung = test system: NCI-H226 lung
HCT-116 colon = test system: HCT-116 colon
SK-MEL-28 melanoma = test system: SK-MEL-28 melanoma
OVCAR-5 ovarian = test system: OVCAR-5 ovarian
UO-31 renal = test system: UO-31 renal
786-0 renal = test system: 786-0 renal
SK-OV-3 ovarian = test system: SK-OV-3 ovarian
SNB-19 CNS = test system: SNB-19 CNS
SNB-75 CNS = test system: SNB-75 CNS
DU-145 prostate = test system: DU-145 prostate
SK-MEL-5 melanoma = test system: SK-MEL-5 melanoma
K-562 leukemia = test system: K-562 leukemia
SN12C renal = test system: SN12C renal
MCF7 breast = test system: MCF7 breast
UACC-62 melanoma = test system: UACC-62 melanoma
NCI-H23 lung = test system: NCI-H23 lung
SF-539 CNS = test system: SF-539 CNS
BT-549 breast = test system: BT-549 breast
NCI-H460 lung = test system: NCI-H460 lung
MDA-MB-435 = test system: MDA-MB-435

Compound: COc1ccc(CNc2nc(NCc3ccc(OC)cc3)nc(N3CCOCC3)n2)cc1
- TGI (MDA-MB-231 breast): > 100 µM
- TGI (A498 renal): 93.8 µM
- TGI (EKVX NSCLC): > 100 µM
- TGI (KM12 colon): 8.09 µM
- TGI (IGROV1 ovarian): > 100 µM
- TGI (U251 CNS): > 100 µM
- TGI (HOP-62 NSCLC): > 100 µM
- TGI (HL-60(TB) leukemia): 13.6 µM
- TGI (SK-MEL-2 melanoma): > 100 µM
- TGI (NCI-H522 lung): > 100 µM
- TGI (RPMI-8226 leukemia): 4.03 µM
- TGI (OVCAR-8 ovarian): > 100 µM
- TGI (SF-295 CNS): 8.98 µM
- TGI (COLO 205 colon): > 100 µM
- TGI (ACHN renal): > 100 µM
- TGI (HT29 colon): 9.63 µM
- TGI (TK-10 renal): 28.8 µM
- TGI (HCT-15 colon): 6.21 µM
- TGI (MALME-3M melanoma): 5.84 µM
- TGI (HS 578T breast): > 100 µM
- TGI (NCI/ADR-RES ovarian): 13 µM
- TGI (HOP-92 NSCLC): > 100 µM
- TGI (A549 NSCLC): > 100 µM
- TGI (OVCAR-4 ovarian): > 100 µM
- TGI (CAKI-1 renal): 6.9 µM
- TGI (SW-620 colon): > 100 µM
- TGI (SR leukemia): 4.92 µM
- TGI (PC-3 prostate): > 100 µM
- TGI (OVCAR-3 ovarian): 6.81 µM
- TGI (MOLT-4 leukemia): 10.9 µM
- TGI (UACC-257 melanoma): > 100 µM
- TGI (M14 melanoma): > 100 µM
- TGI (RXF 393 renal): > 100 µM
- TGI (T-47D breast): > 100 µM
- TGI (NCI-H226 lung): > 100 µM
- TGI (HCT-116 colon): > 100 µM
- TGI (SK-MEL-28 melanoma): > 100 µM
- TGI (OVCAR-5 ovarian): 41.6 µM
- TGI (UO-31 renal): > 100 µM
- TGI (786-0 renal): > 100 µM
- TGI (SK-OV-3 ovarian): > 100 µM
- TGI (SNB-19 CNS): > 100 µM
- TGI (SNB-75 CNS): > 100 µM
- TGI (DU-145 prostate): > 100 µM
- TGI (SK-MEL-5 melanoma): 24.4 µM
- TGI (K-562 leukemia): 26.2 µM
- TGI (SN12C renal): > 100 µM
- TGI (MCF7 breast): > 100 µM
- TGI (UACC-62 melanoma): > 100 µM
- TGI (NCI-H23 lung): 28.7 µM
- TGI (SF-539 CNS): 19.2 µM
- TGI (BT-549 breast): > 100 µM
- TGI (NCI-H460 lung): > 100 µM
- TGI (MDA-MB-435): 4.66 µM
